Laboratory results: US8507498B2, “4, 6-disubstituted aminopyrimidine derivatives as inhibitors of protein kinases” (Ingenium Pharmaceuticals GmbH, priority 2007, dated 2013)

Columns and labels:
[1] = biological target: T1, CDK5/p35 (Homo sapiens, UniProt Q00535); test: General kinase assay (Example 80); assay type: biochemical; details: ATP 1 μM
T1 construct: purchased Upstate
Protocol: (§1) Kinase assays determining CDK2/CyclinA and CDK5/p35 activity were performed as described by the manufacturer's recommendations (ProQinase (Freiburg, Germany) for CDK2/CyclinA and Upstate for CDK5/p35).
(§2) The inhibitory effect of compounds according to the present invention on the activity of protein kinases can be measured according to the following protocol: • Reaction Volume: 40 μl • Reaction Time: 60 min • Reaction Temperature: room temperature • Assay Plate: 96 well U bottom plate (Greiner, 650161) • MultiScreen-PH Plate: 96 well MAPH Filter Plates (Millipore, MAPHNOB50) • Filter Washing Solution: 0.75% H3PO4 • Scintillation Liquid Supermix Liquid Scintillator (PerkinElmer, 1200-439) Controls: • Negative Control (C−): 100 mM EDTA (Ethylenediaminetetraacetic acid), no Inhibitor • Positive Control (C+): no Inhibitor Reaction Buffer: • 20 mM Tris (Tris(hydroxymethyl)aminomethane hydrochloride), pH 7.5 • 10 mM MgCl2 • 1 mM DTT Final Assay Concentrations: • Kinase: Use kinase conc. yielding 10% ATP turn over. • ATP: 1 μM • Adenosine 5′-[-^33P]triphosphate:12.5 μCi/ml (Amersham Biosciences, BF1000) • Substrate: Myelin Basic Protein 10 μM (Invitrogen, 13228-010) Pipetting Sequence: • 1) Add 10 μl 4 fold concentrated Substrate+4 fold concentrated ATP in […] concentrated Reaction Buffer to each well of Assay Plate • 2) Add 10 μl 4 fold concentrated inhibitor in 4% DMSO in H2O to each well except to C− and C+wells • 3) Add 10 μl 4% DMSO in H2O to C− and C+wells • 4) Add 10 μl 500 mM EDTA in H2O to C− wells • 5) Add 10 μl 50 μCi/ml Adenosine 5′-[-^33P]triphosphate in H2O to each well • 6) Add 10 μl 4 fold concentrated kinase in Reaction Buffer to each well • 7) Incubate 1 hr at room temperature • 8) Add 10 μl 50 mM EDTA in H2O to each well except to C− wells • 9) Prepare MAPH plates by adding 200 μl 0.75% H3PO4 to each well • 10) Exhaust 0.75% H3PO4 using Millipore vacuum station • 11) Add 60 μl 0.75% H3PO4 to each well of MAPH Filter Plate • 12) Transfer 30 μl sample per well from Assay Plate to corresponding well of MAPH Filter Plate • 13) Incubate 30 min at room temperature • 14) Wash each well of MAPH Filter Plates 3× with 200 μl 0.75% H3PO4 using Millipore vacuum station. • 15) Add 20 μl Scintillation Liquid to each well of MAPH Filter Plate • 16) Seal MAPH Filter Plate • 17) Store MAPH Filter Plate 30 min in darkness • 18) Quantify radioactivity Results:
(§3) IC50s were calculated for each kinase based on serial dilutions.

[2] = biological target: T2, CDK2/CycA (Homo sapiens, UniProt P24941); test: General kinase assay (Example 80); assay type: biochemical; details: ATP 1 μM
T2 construct: purchased ProQinase (Freiburg, Germany)
Protocol: as §1, §2, §3

[3] = test system: HT29; test: Growth assay using Alamar Blue; assay type: cell-based; details: Homo sapiens, HT-29, read-out: IC50 against cell line HT29
Protocol: (§4) Cells were seeded in 384-well plates (white, Greiner: 781080) at a density of […] cells per well in medium (RPMI+10% FCS).
(§5) Cells were incubated in 25 μl medium/well and were grown over night at 37° C., 6% CO2. On the following day compounds were added in DMSO in serial fold dilutions in fresh medium. Negative control wells were incubated without cells. Positive control wells were incubated with cells but without inhibitors (DMSO only). These wells served as data points to determine relative growth (given in % of the DMSO control [=100%]). The cell number was determined by addition of 5 μL Alamar Blue™ (Biosource DAL1100) to each well. Fluorescence was measures with an Analyst GT machine (Molecular Devices) at an excitation wavelength of 560 nm and an emission wavelength of 590 nm.
(§6) The following cell lines were used: A2780 (ECACC order number 93112519; human ovarian carcinoma; Semin Oncol (1984) 11:285; Cancer Res (1987) 47:414), B16F1 (ATCC order number CRL-6323; melanoma; Nat. New Biol. 242: 148-149, 1973); HCT116 (ATCC order number CCL-247; Colorectal carcinoma; Cancer Res (1981) 41:1751; Cancer (1995) 76:201), HT29 (ATTC order number HTB-38; colorectal adenocarcinoma; J. Biol. Chem. 271: 9490-9496, 1996) HepG2 (ATCC order number HB-8065; hepatocellular carcinoma; J. Biol. Chem. 271: 10073-10078, 1996), J774 (ATCC order number TIB-67; reticulum cell sarcoma; J. Biol. Chem. 271: 18431-18436, 1996); MCF7 (ATCC order number HTB-22; Breast carcinoma; J Natl Cancer Inst (1973) 51:1409; Cancer Res (1993) 53:5193), PM1 (obtainable from the National Institute of Allergy and Infectious Diseases; Division of AIDS via the NIH AIDS Research & Reference Reagent Program; Lusso P et al (1995), J Virol 69: 3712-3720) and U373-MAGI-CCR5 (obtainable from the National Institute of Allergy and Infectious Diseases; Division of AIDS via the NIH AIDS Research & Reference Reagent Program; Kensinger R D et al (2004), Antimicrob Agents Chemother 48: 1614-1623).
(§7) IC50s were calculated for each cell line based on serial dilutions.

[4] = test system: A2780; test: Growth assay using Alamar Blue; assay type: cell-based; details: Homo sapiens, read-out: IC50 against cell line A2780
Protocol: as §4, §5, §6, §7

[5] = test system: B16F1; test: Growth assay using Alamar Blue; assay type: cell-based; details: Mus musculus, B16-F1, read-out: IC50 against cell line B16F1
Protocol: as §4, §5, §6, §7

[6] = test system: MCF7; test: Growth assay using Alamar Blue; assay type: cell-based; details: Homo sapiens, read-out: IC50 against cell line MCF7
Protocol: as §4, §5, §6, §7

[7] = test system: HCT116; test: Growth assay using Alamar Blue; assay type: cell-based; details: Homo sapiens, HCT-116, read-out: IC50 against cell line HCT116
Protocol: as §4, §5, §6, §7

[8] = test system: HepG2; test: Growth assay using Alamar Blue; assay type: cell-based; details: Homo sapiens, read-out: IC50 against cell line HepG2
Protocol: as §4, §5, §6, §7

[9] = test system: U373-MAGI-CCR5E; test: Growth assay using Alamar Blue; assay type: cell-based; details: read-out: IC50 against cell line U373-MAGI-CCR5E
Protocol: as §4, §5, §6, §7

[10] = test system: J774; test: Growth assay using Alamar Blue; assay type: cell-based; details: Mus musculus, read-out: IC50 against cell line J774
Protocol: as §4, §5, §6, §7

[11] = test system: PM1; test: Growth assay using Alamar Blue; assay type: cell-based; details: read-out: IC50 against cell line PM1
Protocol: as §4, §5, §6, §7

[12] = biological target: CDK1/CycB (Homo sapiens, UniProt P06493); test: General kinase assay (Example 80); assay type: biochemical; details: ATP 1 μM
Protocol: as §2, §3

[13] = biological target: CDK6/CycD3 (Homo sapiens, UniProt Q00534); test: General kinase assay (Example 80); assay type: biochemical; details: ATP 1 μM
Protocol: as §2, §3

[14] = biological target: CDK4/CycD1 (Homo sapiens, UniProt P11802); test: General kinase assay (Example 80); assay type: biochemical; details: ATP 1 μM
Protocol: as §2, §3

[15] = test system: HBV (HepG2-2.2.15 cells); test: HBV replication assay; assay type: cell-based; details: 6 days
Protocol: To test the anti-HBV-activity of compounds of the present invention the HBV-producing cell line HepG2-2.2.15 (M. A. Sells, PNAS 1987, 84, 1005-1009) is used. About 1.0×10^4 cells are seeded in 96-well microtiter plates in DMEM medium supplemented with 10% FCS. After incubation at 37° C. in 5% CO2 atmosphere for 24 hours the medium is replaced with fresh medium containing the appropriately diluted compounds of the present invention. 3 days later medium is replaced by freshly prepared compound-containing medium and the cells are incubated for further 3 days. Subsequently 200 μl lysis buffer (50 mM Tris-Cl 7.5; 1 mM EDTA 8.0; 0.5% NP40) per well is added. To remove cell debris and nucleic acids, lysate is centrifuged (15000 rpm, 10 min, 4° C.).
Cellular and viral RNA is removed by addition of 2 μl of RNase. 100 μl of the samples are spotted onto an uncharged nylon membrane pre-wetted with PBS (phosphate-buffered saline) using a 96 well-blotting chamber (MINIfold Dot-Blot, Schleicher&Schüll). […]
The fixed membrane is pre-hybridized in a standard hybridisation buffer (50% formamide, 5×SSPE, 10×Denhards, 1% SDS, 100 μg/ml salmon sperm DNA) for at least 3 hours at 42° C. and hybridised overnight against the labelled HBV-fragment. […] The intensity of the HBV-DNA is quantified using a phosphoimager (Fuji). […] Absorbance is monitored at 570 nm and 600 nm wavelength.

CDK6/CycD3, sequence (Q00534 whole entry, species assumed): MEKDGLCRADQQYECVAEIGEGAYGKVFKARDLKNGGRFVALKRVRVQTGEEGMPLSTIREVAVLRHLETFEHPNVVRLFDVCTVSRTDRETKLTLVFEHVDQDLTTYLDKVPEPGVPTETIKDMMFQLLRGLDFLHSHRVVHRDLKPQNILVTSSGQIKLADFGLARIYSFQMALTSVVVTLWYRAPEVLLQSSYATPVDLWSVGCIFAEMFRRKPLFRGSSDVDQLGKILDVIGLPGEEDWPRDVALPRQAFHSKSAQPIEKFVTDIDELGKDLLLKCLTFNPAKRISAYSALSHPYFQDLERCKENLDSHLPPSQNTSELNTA
CDK6/CycD3, sequence (P30281 whole entry partner, species assumed): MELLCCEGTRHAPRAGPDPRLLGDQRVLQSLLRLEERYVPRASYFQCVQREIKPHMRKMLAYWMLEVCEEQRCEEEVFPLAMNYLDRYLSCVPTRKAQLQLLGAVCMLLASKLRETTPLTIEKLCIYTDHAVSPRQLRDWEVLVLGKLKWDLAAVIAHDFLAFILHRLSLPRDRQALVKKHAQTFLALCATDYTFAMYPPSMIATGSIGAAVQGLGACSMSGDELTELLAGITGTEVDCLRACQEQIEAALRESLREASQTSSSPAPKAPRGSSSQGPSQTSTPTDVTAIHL
CDK1/CycB, sequence (P06493 whole entry, species assumed): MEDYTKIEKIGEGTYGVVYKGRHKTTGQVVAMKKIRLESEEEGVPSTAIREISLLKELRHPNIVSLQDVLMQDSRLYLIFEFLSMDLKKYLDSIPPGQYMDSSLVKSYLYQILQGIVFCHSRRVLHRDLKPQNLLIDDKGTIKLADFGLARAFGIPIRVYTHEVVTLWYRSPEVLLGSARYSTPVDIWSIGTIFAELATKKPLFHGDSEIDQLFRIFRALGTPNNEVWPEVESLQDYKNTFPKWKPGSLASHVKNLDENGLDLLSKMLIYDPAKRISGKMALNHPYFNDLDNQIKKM
CDK1/CycB, sequence (P14635 whole entry partner, species assumed): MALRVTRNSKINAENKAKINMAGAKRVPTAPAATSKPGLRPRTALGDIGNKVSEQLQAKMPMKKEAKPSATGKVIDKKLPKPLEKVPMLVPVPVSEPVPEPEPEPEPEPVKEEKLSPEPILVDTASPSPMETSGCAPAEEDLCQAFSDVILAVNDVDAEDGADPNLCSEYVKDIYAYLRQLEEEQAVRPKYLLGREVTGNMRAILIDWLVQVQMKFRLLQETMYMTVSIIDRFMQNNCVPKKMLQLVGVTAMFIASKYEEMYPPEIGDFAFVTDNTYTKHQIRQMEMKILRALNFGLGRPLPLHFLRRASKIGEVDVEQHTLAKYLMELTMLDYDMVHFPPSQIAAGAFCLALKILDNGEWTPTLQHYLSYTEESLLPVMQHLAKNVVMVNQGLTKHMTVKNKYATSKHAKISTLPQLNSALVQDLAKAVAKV
CDK4/CycD1, sequence (P11802 whole entry, species assumed): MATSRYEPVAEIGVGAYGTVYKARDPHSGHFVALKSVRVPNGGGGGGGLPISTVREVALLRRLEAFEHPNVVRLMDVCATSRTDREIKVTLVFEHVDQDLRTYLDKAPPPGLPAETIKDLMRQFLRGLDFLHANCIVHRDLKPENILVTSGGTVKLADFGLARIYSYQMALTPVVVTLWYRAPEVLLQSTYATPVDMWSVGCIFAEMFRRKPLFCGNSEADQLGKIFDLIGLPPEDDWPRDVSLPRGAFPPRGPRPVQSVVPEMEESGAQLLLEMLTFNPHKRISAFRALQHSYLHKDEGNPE
CDK4/CycD1, sequence (P24385 whole entry partner, species assumed): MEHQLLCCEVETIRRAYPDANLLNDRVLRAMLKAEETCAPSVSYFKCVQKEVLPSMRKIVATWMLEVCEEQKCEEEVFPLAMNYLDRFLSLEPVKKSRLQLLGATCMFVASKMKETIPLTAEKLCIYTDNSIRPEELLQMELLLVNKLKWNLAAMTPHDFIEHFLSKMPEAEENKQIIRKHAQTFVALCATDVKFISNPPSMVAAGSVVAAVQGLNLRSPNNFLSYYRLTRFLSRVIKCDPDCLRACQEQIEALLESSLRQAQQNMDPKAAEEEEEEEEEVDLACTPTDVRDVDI
T1 sequence (Q00535 whole entry): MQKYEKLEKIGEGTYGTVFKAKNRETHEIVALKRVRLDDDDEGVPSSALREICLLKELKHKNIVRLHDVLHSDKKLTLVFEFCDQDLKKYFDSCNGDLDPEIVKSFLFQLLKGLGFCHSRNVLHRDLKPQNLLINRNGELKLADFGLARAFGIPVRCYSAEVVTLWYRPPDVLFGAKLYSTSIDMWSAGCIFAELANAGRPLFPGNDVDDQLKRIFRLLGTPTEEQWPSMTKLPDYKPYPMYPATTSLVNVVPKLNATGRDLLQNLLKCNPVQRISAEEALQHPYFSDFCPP
T1 sequence (Q15078 whole entry partner): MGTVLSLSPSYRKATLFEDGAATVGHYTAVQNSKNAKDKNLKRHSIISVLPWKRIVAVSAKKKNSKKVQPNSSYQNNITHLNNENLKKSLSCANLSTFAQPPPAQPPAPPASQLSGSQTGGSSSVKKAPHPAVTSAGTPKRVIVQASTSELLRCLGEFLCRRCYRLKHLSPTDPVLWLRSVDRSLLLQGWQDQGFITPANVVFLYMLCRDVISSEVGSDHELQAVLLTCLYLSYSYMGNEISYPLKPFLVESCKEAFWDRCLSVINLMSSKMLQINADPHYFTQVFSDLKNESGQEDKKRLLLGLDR

IC50 [1] [µM] | IC50 [2] [µM] | IC50 [3] [µM] | IC50 [4] [µM] | IC50 [5] [µM] | IC50 [6] [µM] | IC50 [7] [µM] | IC50 [8] [µM] | IC50 [12] [µM] | IC50 [13] [µM] | IC50 [14] [µM] | Compound | IC50 [9] [µM] | IC50 [10] [µM] | IC50 [11] [µM] | HBV replication (HBV-DNA) [15]
< 5 | < 10 | < 5 | < 10 | < 10 | < 10 | < 2 | < 10 | < 10 | < 10 | < 10 | COc1ccccc1-c1cc(Nc2cccc(CS(N)(=O)=O)c2)ncn1 [Compound 85, C-{3-[6-(2-methoxy-phenyl)-pyrimidin-4-ylamino]-phenyl}-methanesulfonamide] | < 10 | < 10 | < 5 | 
 |  |  |  |  |  |  |  |  |  |  | CN1CC[C@H](c2c(O)cc(O)c3c(=O)cc(-c4ccccc4Cl)oc23)[C@H](O)C1 [flavopiridol] |  |  |  | inhibits replication
